Earlier results, collected in PMC4617652 (Journal of the American Chemical Society, 2015).
Read-outs that look alike come from different tables or passages of the source.

Compound: CC(C)(C)N=P(N1CCCC1)(N1CCCC1)N1CCCC1 [P1-tBu(pyrr)3]
- pKBH+ of reference base (MeCN ref 19): 28.35

Compound: C1CCC2=NCCCN2CC1 [DBU]
- pKBH+ of reference base (MeCN ref 24): 24.34

Compound: CCN=P(N=P(N(C)C)(N(C)C)N(C)C)(N(C)C)N(C)C [P2-Et]
- pKBH+ of reference base (MeCN ref 6c): 32.94
